Tested on: M. tuberculosis H37Rv growth inhibition
Assay: M. tuberculosis H37Rv growth inhibitors, H37Rv strain (AID 1626)
Conditions: for IC90: measured here: IC90 against H37Rv; for CC50: measured here: Vero cell cytotoxicity

Structure (SMILES)	IC50 [µM]	IC90 [µM]	CC50 [µM]
Cc1cc(C)n(-c2nc(SCCN(C)C)c3c4c(sc3n2)CCCC4)n1	4.2	6.19	11.6
O=C(NC(Nc1nc2ccc([N+](=O)[O-])cc2s1)(C(F)(F)F)C(F)(F)F)c1ccccc1Cl	2.17	4.17	1
O=C(/C=C/c1ccc(Cl)c([N+](=O)[O-])c1)c1cccnc1	1.18	2.47	38.8
CSc1cccc(NC(=O)CSc2nnc(C)s2)c1	97.1	> 100	–
Cc1ccc(S(=O)(=O)NCCC(=O)Nc2ccc(C)c(Cl)c2)cc1C	19.8	> 100	> 40
CCc1ccc(/C=c2\s/c(=C\C(=O)C(C)(C)C)[nH]c2=O)cc1	2.55	3.56	> 40
O=C(Nc1nnc(-c2ccc(Cl)cc2)o1)c1ccccc1Br	1.12	3.35	> 40
CN1CCN(c2ccccc2NC(=O)c2ccc(-c3ccc(Cl)cc3Cl)o2)CC1	65.2	82.8	> 40
Cc1ccc2c(c1)c1ncnc(N3CCc4ccccc4C3)c1n2C	6.39	11.2	–
O=c1cc(C(Cl)(Cl)Cl)oc2c1ccc1ccccc12	1.1	1.8	10.9
COC(=O)C(CC(C)C)NC(=O)/C=C/c1ccc(Cl)cc1 (configuration not stated)	3.88	6.5	–
CCOC(=O)CSc1nc2c(c(-c3ccc(C)o3)c1C#N)CCCC2	2.36	3.53	–
CC(C)NCC(O)Cn1c2c(c3ccccc31)CCc1c-2cnn1-c1ccccc1 (configuration not stated)	10.1	13.6	7.97
CC(C)COC(=O)c1ccc2c(c1O)C(=O)c1ccccc1C2=O	2.51	4.11	27.8
O=C(/C=C/Nc1ccc(Oc2ccccc2Cl)cc1)c1ccco1	–	> 100	> 40
C=C1C(=O)O[C@@H]2C[C@@H](C)[C@@H]3C=CC(=O)[C@@]3(C)[C@@H](O)[C@H]12	3.84	6.64	1.84
Cc1c(C(=O)N2CCCCC2)sc(NC(=O)C23CC4CC(CC(C4)C2)C3)c1C#N	40.8	> 100	–
O=C(Nc1nc(-c2ccccn2)cs1)C1CC(=O)N(c2ccc3c(c2)OCCO3)C1 (configuration not stated)	17.2	> 100	36.7
O=[N+]([O-])c1ncn(Cc2c(Cl)cccc2Cl)n1	36.6	> 100	–
CCCCOC(=O)CSc1nc(N)c(C#N)c(-c2ccc(OC)cc2)c1C#N	1.14	2.39	–

Structure (SMILES)	IC50 [µM]	IC90 [µM]	CC50 [µM]
O=C(OCC#CCSc1nc2ccccc2o1)c1ccco1	4.27	12.4	–
CC(=O)Nc1nnc(-c2ccc3c(c2)CCCC3)o1	11.9	23	> 40
Cc1ccc(NC(=O)CSCC#N)cc1Cl	47.5	> 100	–
COc1cccc(C(=O)Nc2ccc(-c3nc4ccccc4o3)c(O)c2)c1	8.7	> 100	> 40
Cc1ccc(-c2csc(NC(=O)CSc3nc4ccccc4c(=O)n3CCCN(C)C)n2)cc1	7.67	9.52	12
O=c1[nH]c(-c2ccccn2)nc2ccccc12	5.87	6.72	> 40
O=C(Nc1ccc(Nc2ccncc2)cc1)c1ccc(Nc2ccnc3ccc([N+](=O)[O-])cc23)cc1[N+](=O)[O-]	1.39	1.57	> 40
c1ccc(-c2cc3c(NCC4COc5ccccc5O4)ncnc3s2)cc1 (configuration not stated)	–	> 100	> 40
Cc1c(Cc2ccccc2)c(NCCCO)n2c(nc3ccccc32)c1C#N	2.9	3.35	–
Nc1c(C(=O)NCCc2ccccc2)c2nc3ccccc3nc2n1CCN1CCOCC1	18.6	25.4	31.4
O=C1N(c2ccc3c(c2)OCCO3)C(c2ccccc2)C1(F)F (configuration not stated)	2.57	7.34	–
COc1ccc(C2=CC(c3c(C)nn(-c4ccccc4)c3Cl)n3nnnc3N2)cc1OC (configuration not stated)	8.88	14.1	–
CCOc1ccc(NC(=O)N(C2CCCCC2)C2CCN(C(C)=O)CC2)cc1	–	> 100	–
CCOC(=O)CN(C#N)c1nc(N(C)C)nc(N(C)C)n1	9.34	11.7	–
COc1ccc(-c2n(CC(=O)OC3CC(C)CCC3C(C)C)c3ccccc3[n+]2C)cc1 (configuration not stated)	0.985	2.37	23.9
CC(C)=CCN1CCN(CCC2=C(C)CCCC2(C)C)CC1CCO (configuration not stated)	5.88	6.66	–
OCCN1CCN(c2nc(-c3ccccc3)nc3c2oc2ccccc23)CC1	4.89	8.31	13.6
O=C(Oc1ccc(Cl)cc1)c1ccc(COC(=O)c2cnccn2)cc1	6.54	9.41	> 40
CCCCCCCn1c(NC(=O)CC)nc2ccccc21	< 0.195	1.58	29.2
O=C(/C=C/c1ccc(Br)cc1)c1ccco1	14.5	21.3	> 40
